Data taken from patent US10117871B2, “3-hydroxypyrimidine-2,4-dione-5-carboxamides as potent inhibitors of HIV” (Regents of the University of Minnesota, priority 2015, dated 2018).
Read-outs that look alike come from different tables or passages of the source.

How the values were obtained:
HIV-1 integrase = biological target: T1, HIV-1 integrase (Human immunodeficiency virus type 1 group M subtype B, UniProt P04585); assay: HIV-1 integrase strand transfer (INST) assay; assay type: biochemical
T1 construct: HIV integrase was expressed and purified as previously reported; made in house; host or cells: Escherichia coli
Description: HIV integrase was expressed and purified as previously reported.^43 Inhibition assays were performed using a modified protocol of a reported method.^43 Briefly, 2.1 μL of compound suspended in DMSO was placed in duplicate into a Black 96 well non-binding plate (coming 3991). Compounds were plated in duplicate to a final concentration of 0.13-100 μM. To each well of the plate 186.9 μL of reaction mixture without DNA substrate was added (10 mM HEPES pH 7.5, 10% glycerol w/v, 10 mM MnCl2, 1 mM DTT, 1 μM integrase). The enzyme was incubated with inhibitor for 10 min at 25° C. after which the reaction was initiated by the addition of 21 μL of 500 nM oligo (5′ biotin […] annealed with […] 3′ Cy5). Reactions were incubated at 37° C. for 30 min and then quenched by the addition of 5.2 μL 500 mM EDTA. Each reaction was moved (200 μL) to a MultiScreen HTS PCR plate (Millipore MSSLBPC10) containing 20 μL streptavidin agarose beads (Life Technologies S951) and incubated with shaking for 30 min. A vacuum manifold was used to remove the reaction mixture and the beads were similarly washed 3 times with wash buffer (0.05% SDS, 1 mM EDTA in PBS). The plates were further washed 3 times with 200 μL 50 mM NaOH to denature DNA not covalently linked to the biotin modification. For each denaturation step the plate was incubated with shaking at 25° C. for 5 min and the NaOH was removed by centrifugation at 1000 g for 1 min. The reaction products were eluted from the beads by the addition of 150 μL formamide. The plate was incubated at 25° C. for 10 min and read directly at 635/675 in a SpectraMax i3 plate reader (Molecular Devices). Expression and purification of the recombinant IN in Escherichia coli were performed as previously reported^39, 44 with addition of 10% glycerol to all buffers. Preparation of oligonucleotide substrates has been described.^45 Integrase reactions were performed in 10 μL with 400 nM of recombinant IN, 20 nM of 5′-end [^32P]-labeled oligonucleotide substrate and inhibitors at various concentrations. Solutions of 10% DMSO without inhibitors were used as controls. Reactions were incubated at 37° C. (60 minutes) in buffer containing 50 mM MOPS, pH 7.2, 7.5 mM MgCl2, and 14.3 mM 2-mercaptoethanol. Reactions were stopped by addition of 10 μL of loading dye (10 mM EDTA, 98% deionized formamide, 0.025% xylene cyanol and 0.025% bromophenol blue). Reactions were then subjected to electrophoresis in 20% polyacrylamide-7 M urea gels. Gels were dried and reaction products were visualized and quantitated with a Typhoon 8600 (GE Healthcare, Little Chalfont, Buckinghamshire, UK). Densitometric analyses were performed using ImageQuant from Molecular Dynamics Inc. The concentrations at which enzyme activity was reduced by 50% (IC50) were determined using “Prism” software (GraphPad Software, San Diego, Calif.) for nonlinear regression to fit dose-response data to logistic curve models.

HIV-1IIIB = assay: HIV-1 cytoprotection (CPE reduction) antiviral assay; assay type: cell-based; settings: for inhibition at 10 µM: read-out: CPE reduction %
Description: (§1) The antiviral activity of newly synthesized analogues of chemotype 7 was evaluated against HIV-1IIIB in CEM-SS cells using an assay based on viral cytopathic effect (CPE). In this assay, the reduction of CPE was used to indicate the antiviral activity of a compound.
Briefly virus and cells were mixed in the presence of test compound and incubated for 6 days. […] Each assay plate contained cell control wells (cells only), virus control wells (cells plus virus), compound toxicity control wells (cells plus compound only), compound colorimetric control wells (compound only) as well as experimental wells (compound plus cells plus virus). Cytoprotection and compound cytotoxicity were assessed by MTS (CellTiter® 96 Reagent, Promega, Madison Wis.) and the EC50 (concentration inhibiting virus replication by 50%), CC50 (concentration resulting in 50% cell death) and a calculated TI (therapeutic index CC50/EC50) were provided. Each assay included AZT as a positive control.

[1] = Compound cytotoxicity (MTS) in the HIV cytoprotection assay; assay type: cell-based; settings: human
Description: as §1
(§2) Briefly virus and cells were mixed in the presence of test compound and incubated for 6 days. […] Each assay plate contained cell control wells (cells only), virus control wells (cells plus virus), compound toxicity control wells (cells plus compound only), compound colorimetric control wells (compound only) as well as experimental wells (compound plus cells plus virus). […] Each assay included AZT as a positive control.

CEM-SS cells = assay: as above; assay type: cell-based; settings: for Cell viability %: 10 μM, CEM-SS cells
Description: as §1, §2

[2] = Aqueous stability in DPBS; assay type: physicochemical; settings: DPBS (37° C.) over a 24 h period
Description: To assess drug-like properties of chemotype 7, selected analogues were tested in various in vitro ADME studies (Table 5). Aqueous stability and solubility were evaluated in Dulbecco's Phosphate-Buffered Saline (DPBS). […] Assessment of plasma and microsomal stability as well as plasma protein binding was done in two species, human and mouse. […] Microsomal stability of the compounds were evaluated in liver microsomes using either NADPH (phase I) or UDPGA (phase II) as cofactor.

| Compound | IC50 (HIV-1 integrase; read-out: IC50 (ST)) | IC50 (HIV-1 integrase; read-out: INST IC50) | inhibition at 10 µM (HIV-1IIIB; Human immunodeficiency virus 1, CEM-SS) | EC50 (HIV-1IIIB; Human immunodeficiency virus 1, Concentration inhibiting virus replication by 50%, dose response, read-out: EC50) | EC50 (HIV-1IIIB; Human immunodeficiency virus 1, summary of Table 2, read-out: EC50) | CC50 at 6 days [1] | Cell viability % (CEM-SS cells) | remaining in DPBS [2] | EC50 (HIV-1IIIB; Human immunodeficiency virus 1) | inhibition at 10 µM (HIV-1IIIB; Human immunodeficiency virus 1, 10 μM, HIV-1IIIB in CEM-SS cells) | CC50 (CEM-SS cells; Concentration resulting in 50% cell death) |
| --- | --- | --- | --- | --- | --- | --- | --- | --- | --- | --- | --- |
| CCNc1[nH]c(=O)n(O)c(=O)c1C(=O)NCc1cc(F)ccc1F [Compound 7-xvii, N-(2,5-Difluorobenzyl)-1-(hydroxy)-4-(ethylamino)-1,2,3,6-tetrahydro-2,6-dioxopyrimidine-5-carboxamide] | 21 to 77 nM | 68 ± 11 nM | 100% | 32 nM | 15 to 61 nM | 47000 nM | 92% | – | – | – | – |
| CCNc1[nH]c(=O)n(O)c(=O)c1C(=O)NCc1ccc(Cl)c(F)c1 [Compound 7-xxii, N-(4-Chloro-3-fluorobenzyl)-1-(hydroxy)-4-(ethylamino)-1,2,3,6-tetrahydro-2,6-dioxopyrimidine-5-carboxamide] | – | 120 ± 21 nM | – | – | – | – | 100% | 86% | 190 nM | 100% | 19000 nM |
